Experimental data from patent publication US20240270762A1, “PENICILLIN-BINDING PROTEIN INHIBITORS” (priority 2021, published 2024).
Values after ≈ are worked out from the molar mass of the structure shown.

Experiments:
[1] = target: T1, A. baumannii PBP1a (Acinetobacter baumannii, UniProt A0ABX6CK30); assay: Bocillin-FL competition binding via gel filtration, A. baumannii PBP1a; settings: competition binding assay using Bocillin-FL via gel filtration; read-out: A. baumannii PBP1a Potency
T1 sequence (A0ABX6CK30 1-851): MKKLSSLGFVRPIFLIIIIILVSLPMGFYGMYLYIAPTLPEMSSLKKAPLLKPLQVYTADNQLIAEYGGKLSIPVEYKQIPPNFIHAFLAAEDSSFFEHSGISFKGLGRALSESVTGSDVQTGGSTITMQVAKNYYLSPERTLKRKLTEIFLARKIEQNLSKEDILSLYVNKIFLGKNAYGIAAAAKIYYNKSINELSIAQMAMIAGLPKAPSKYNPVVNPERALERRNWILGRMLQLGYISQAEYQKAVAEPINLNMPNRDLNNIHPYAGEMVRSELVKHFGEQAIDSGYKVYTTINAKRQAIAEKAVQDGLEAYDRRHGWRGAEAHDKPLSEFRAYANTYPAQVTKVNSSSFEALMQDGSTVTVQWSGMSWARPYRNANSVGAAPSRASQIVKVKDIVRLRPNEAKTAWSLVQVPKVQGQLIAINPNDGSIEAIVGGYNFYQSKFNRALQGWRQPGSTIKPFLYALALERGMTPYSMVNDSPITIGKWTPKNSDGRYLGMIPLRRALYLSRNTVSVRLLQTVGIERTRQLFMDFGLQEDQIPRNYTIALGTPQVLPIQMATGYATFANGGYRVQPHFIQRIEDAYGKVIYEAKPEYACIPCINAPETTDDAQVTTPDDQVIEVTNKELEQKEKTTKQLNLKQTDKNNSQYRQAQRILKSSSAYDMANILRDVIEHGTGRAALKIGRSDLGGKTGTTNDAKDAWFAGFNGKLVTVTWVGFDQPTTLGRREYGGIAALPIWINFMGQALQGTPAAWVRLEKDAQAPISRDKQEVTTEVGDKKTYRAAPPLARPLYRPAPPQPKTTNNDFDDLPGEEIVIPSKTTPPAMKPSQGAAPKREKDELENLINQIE
In short: (§1)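 Enzyme pre-incubated with increasing inhibitor concentrations, then Bocillin-FL added for 15 min further incubation. Bocillin-FL-bound PBP separated by gel filtration and fluorescence read. EC50 from fitting fraction PBP bound vs inhibitor concentration to a Hill-type equation (ymin, ymax, n).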

[2] = target: A. baumannii PBP2 (Acinetobacter baumannii, UniProt D0C8Z9); assay: Bocillin-FL competition binding via gel filtration, A. baumannii PBP2
In short: as §1

[3] = tested on: A. baumannii CDC-0083; assay: microbe, parasite or virus in culture; format: cell-based; settings: Acinetobacter baumannii, CDC0083, read-out: MIC, A. baumannii CDC-0083
[4] = tested on: E. coli ATCC 25922; assay: microbe, parasite or virus in culture; format: cell-based; settings: Escherichia coli, ATCC25922, read-out: MIC E. coli 25922
[5] = tested on: E. coli AG100; assay: microbe, parasite or virus in culture; format: cell-based; settings: Escherichia coli, AG100, read-out: MIC E. coli AG100
[6] = tested on: E. coli 901C; assay: microbe, parasite or virus in culture; format: cell-based; settings: Escherichia coli, read-out: MIC E. coli 901C
[7] = tested on: E. coli D22; assay: microbe, parasite or virus in culture; format: cell-based; settings: Escherichia coli, D22, read-out: MIC E. coli D22
[8] = tested on: E. coli AG100A; assay: Broth microdilution MIC in CAMHB; format: cell-based; settings: Escherichia coli, read-out: MIC E. coli AG100A
[9] = tested on: K. pneumoniae 848844; assay: microbe, parasite or virus in culture; format: cell-based; settings: Klebsiella pneumoniae, 848844, read-out: MIC K. pneumoniae 848844
[10] = tested on: K. pneumoniae UMM; assay: microbe, parasite or virus in culture; format: cell-based; settings: Klebsiella pneumoniae, read-out: MIC K. pneumoniae UMM
[11] = tested on: K. pneumoniae SI-117; assay: microbe, parasite or virus in culture; format: cell-based; settings: Klebsiella pneumoniae, SI117, read-out: MIC K. pneumoniae SI-117
[12] = tested on: P. aeruginosa ATCC 27853; assay: microbe, parasite or virus in culture; format: cell-based; settings: Pseudomonas aeruginosa, ATCC27853, read-out: MIC P. aeruginosa ATCC 27853
[13] = tested on: A. baumannii ATCC 19606; assay: microbe, parasite or virus in culture; format: cell-based; settings: Acinetobacter baumannii, ATCC19606, read-out: MIC, A. baumannii ATCC 19606
[14] = tested on: P. aeruginosa ATCC 35151; assay: microbe, parasite or virus in culture; format: cell-based; settings: Pseudomonas aeruginosa, ATCC35151, read-out: MIC P. aeruginosa ATCC 35151
[15] = tested on: P. aeruginosa (ΔmexAB-oprM); assay: Broth microdilution MIC in CAMHB; format: cell-based; settings: Pseudomonas aeruginosa; read-out: MIC P. aeruginosa ΔmexAB-oprM

A. baumannii PBP2, sequence (D0C8Z9 whole entry): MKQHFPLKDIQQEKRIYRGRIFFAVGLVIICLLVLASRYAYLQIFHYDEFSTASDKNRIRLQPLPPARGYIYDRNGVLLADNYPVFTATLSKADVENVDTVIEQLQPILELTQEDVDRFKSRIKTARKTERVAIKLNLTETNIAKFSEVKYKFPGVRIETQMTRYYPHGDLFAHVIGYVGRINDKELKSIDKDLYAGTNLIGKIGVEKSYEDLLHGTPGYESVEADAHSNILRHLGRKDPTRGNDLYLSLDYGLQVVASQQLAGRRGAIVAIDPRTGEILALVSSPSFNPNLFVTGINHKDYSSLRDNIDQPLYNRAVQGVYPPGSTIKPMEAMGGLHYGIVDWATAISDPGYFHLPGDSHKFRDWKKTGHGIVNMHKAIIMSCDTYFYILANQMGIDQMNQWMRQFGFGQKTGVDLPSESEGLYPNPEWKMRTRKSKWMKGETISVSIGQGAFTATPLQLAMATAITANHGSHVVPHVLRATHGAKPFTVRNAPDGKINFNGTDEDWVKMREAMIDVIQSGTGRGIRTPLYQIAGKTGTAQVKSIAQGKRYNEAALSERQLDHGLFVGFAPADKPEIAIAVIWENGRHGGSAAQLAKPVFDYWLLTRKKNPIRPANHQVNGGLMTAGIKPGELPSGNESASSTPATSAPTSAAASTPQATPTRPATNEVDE

Structure (SMILES)	EC50 [1] [µM]	EC50 [2] [µM]	MIC [3] [µg/mL]	also measured
O=C(NCCCN1CCN(C(=O)NC(C(=O)N[C@H]2Cc3ccc(F)c(C(=O)O)c3OB2O)c2cc(F)c(O)c(O)c2Cl)C(=O)C1=O)c1ccccc1 (stereo partly drawn) [Example 202, (3R)-3-(2-(4-(3-benzamidopropyl)-2,3-dioxopiperazine-1-carboxamido)-2-(2-chloro-5-fluoro-3,4-dihydroxyphenyl)acetamido)-7-fluoro-2-hydroxy-3,4-dihydro-2H-benzo[e][1,2]oxaborinine-8-carboxylic acid]	10 to 50	50 to 250	< 1	
O=C(NCCS(=O)(=O)N1CCN(C(=O)NC(C(=O)N[C@H]2Cc3ccc(F)c(C(=O)O)c3OB2O)c2cc(F)c(O)c(O)c2Cl)C1=O)c1cccc(O)c1 (stereo partly drawn) [Example 261, (3R)-3-(2-(2-chloro-5-fluoro-3,4-dihydroxyphenyl)-2-(3-((2-(3-hydroxybenzamido)ethyl)sulfonyl)-2-oxoimidazolidine-1-carboxamido)acetamido)-7-fluoro-2-hydroxy-3,4-dihydro-2H-benzo[e][1,2]oxaborinine-8-carboxylic acid]	10 to 50	10 to 50	< 1	
O=C(NCCS(=O)(=O)N1CCN(C(=O)NC(C(=O)N[C@H]2Cc3ccc(F)c(C(=O)O)c3OB2O)c2cc(F)c(O)c(O)c2Cl)C1=O)c1ccccc1 (stereo partly drawn) [Example 260, (3R)-3-(2-(3-((2-benzamidoethyl)sulfonyl)-2-oxoimidazolidine-1-carboxamido)-2-(2-chloro-5-fluoro-3,4-dihydroxyphenyl)acetamido)-7-fluoro-2-hydroxy-3,4-dihydro-2H-benzo[e][1,2]oxaborinine-8-carboxylic acid]		10 to 50	< 1	
O=C(NCCN1CCN(C(=O)NC(C(=O)N[C@H]2Cc3ccc(F)c(C(=O)O)c3OB2O)c2cc(F)c(O)c(O)c2Cl)C(=O)C1=O)Nc1ccc(O)cc1 (stereo partly drawn) [Example 219, (3R)-3-(2-(2-chloro-5-fluoro-3,4-dihydroxyphenyl)-2-(4-(2-(3-(4-hydroxyphenyl)ureido)ethyl)-2,3-dioxopiperazine-1-carboxamido)acetamido)-7-fluoro-2-hydroxy-3,4-dihydro-2H-benzo[e][1,2]oxaborinine-8-carboxylic acid]	< 10	10 to 50	8 to 16 (≈ 10.5 to 21 µM)	
O=C(O)c1cccc2c1OB(O)[C@@H](NC(=O)[C@H](NC(=O)c1cnc3n(c1=O)CCS3)c1ccc(P(=O)(O)O)cc1)C2 (single isomer, unassigned) [Example 197]				MIC [4]: > 128 µg/mL; MIC [5]: > 128 µg/mL; MIC [6]: 2 to 4 µg/mL (≈ 3.33 to 6.66 µM); MIC [7]: 8 to 16 µg/mL (≈ 13.3 to 26.7 µM); MIC [8]: > 128 µg/mL; MIC [9]: > 128 µg/mL; MIC [10]: > 128 µg/mL; MIC [11]: > 128 µg/mL; MIC [12]: > 128 µg/mL; MIC [13]: > 128 µg/mL; MIC [14]: < 1 µg/mL; MIC [15]: 32 to 64 µg/mL (≈ 53.3 to 107 µM)
O=C(NCCCN1CCN(C(=O)N[C@@H](C(=O)N[C@H]2Cc3ccc(F)c(C(=O)O)c3OB2O)c2cc(F)c(O)c(O)c2Cl)C1=O)c1ccccc1 [Example 253, (R)-3-((R)-2-(3-(3-benzamidopropyl)-2-oxoimidazolidine-1-carboxamido)-2-(2-chloro-5-fluoro-3,4-dihydroxyphenyl)acetamido)-7-fluoro-2-hydroxy-3,4-dihydro-2H-benzo[e][1,2]oxaborinine-8-carboxylic acid]	10 to 50	< 10	< 1	
O=C(NCCCS(=O)(=O)N1CCN(C(=O)NC(C(=O)N[C@H]2Cc3ccc(F)c(C(=O)O)c3OB2O)c2cc(F)c(O)c(O)c2Cl)C1=O)c1ccccc1 (stereo partly drawn) [Example 268, (3R)-3-(2-(3-((3-benzamidopropyl)sulfonyl)-2-oxoimidazolidine-1-carboxamido)-2-(2-chloro-5-fluoro-3,4-dihydroxyphenyl)acetamido)-7-fluoro-2-hydroxy-3,4-dihydro-2H-benzo[e][1,2]oxaborinine-8-carboxylic acid]	10 to 50	10 to 50	2 to 4 (≈ 2.56 to 5.13 µM)	
O=C(NCCN1CCN(C(=O)NC(C(=O)N[C@H]2Cc3ccc(F)c(C(=O)O)c3OB2O)c2cc(F)c(O)c(O)c2Cl)C(=O)C1=O)Nc1cccc(O)c1 (stereo partly drawn) [Example 220, (3R)-3-(2-(2-chloro-5-fluoro-3,4-dihydroxyphenyl)-2-(4-(2-(3-(3-hydroxyphenyl)ureido)ethyl)-2,3-dioxopiperazine-1-carboxamido)acetamido)-7-fluoro-2-hydroxy-3,4-dihydro-2H-benzo[e][1,2]oxaborinine-8-carboxylic acid]	< 10	< 10	8 to 16 (≈ 10.5 to 21 µM)	
O=C(NCCCS(=O)(=O)N1CCN(C(=O)NC(C(=O)N[C@H]2Cc3ccc(F)c(C(=O)O)c3OB2O)c2cc(F)c(O)c(O)c2Cl)C1=O)c1cccnc1 (stereo partly drawn) [Example 273, (3R)-3-(2-(2-chloro-5-fluoro-3,4-dihydroxyphenyl)-2-(3-((3-(nicotinamido)propyl)sulfonyl)-2-oxoimidazolidine-1-carboxamido)acetamido)-7-fluoro-2-hydroxy-3,4-dihydro-2H-benzo[e][1,2]oxaborinine-8-carboxylic acid]		10 to 50	< 1	
O=C(NCCCS(=O)(=O)N1CCN(C(=O)N[C@@H](C(=O)N[C@H]2Cc3ccc(F)c(C(=O)O)c3OB2O)c2cc(F)c(O)c(O)c2Cl)C1=O)c1cccc(O)c1 [Example 271, (R)-3-((R)-2-(2-chloro-5-fluoro-3,4-dihydroxyphenyl)-2-(3-((3-(3-hydroxybenzamido)propyl)sulfonyl)-2-oxoimidazolidine-1-carboxamido)acetamido)-7-fluoro-2-hydroxy-3,4-dihydro-2H-benzo[e][1,2]oxaborinine-8-carboxylic acid]	< 10	< 10	< 1	
O=C(NCCCS(=O)(=O)N1CCN(C(=O)NC(C(=O)N[C@H]2Cc3ccc(F)c(C(=O)O)c3OB2O)c2cc(F)c(O)c(O)c2Cl)C1=O)c1ccc(O)cc1 (stereo partly drawn) [Example 269, (3R)-3-(2-(2-chloro-5-fluoro-3,4-dihydroxyphenyl)-2-(3-((3-(4-hydroxybenzamido)propyl)sulfonyl)-2-oxoimidazolidine-1-carboxamido)acetamido)-7-fluoro-2-hydroxy-3,4-dihydro-2H-benzo[e][1,2]oxaborinine-8-carboxylic acid]	< 10	10 to 50	32 to 64 (≈ 40.2 to 80.4 µM)	
O=C(NCCS(=O)(=O)N1CCN(C(=O)NC(C(=O)N[C@H]2Cc3ccc(F)c(C(=O)O)c3OB2O)c2cc(F)c(O)c(O)c2Cl)C1=O)Nc1cccc(O)c1 (stereo partly drawn) [Example 266, (3R)-3-(2-(2-chloro-5-fluoro-3,4-dihydroxyphenyl)-2-(3-((2-(3-(3-hydroxyphenyl)ureido)ethyl)sulfonyl)-2-oxoimidazolidine-1-carboxamido)acetamido)-7-fluoro-2-hydroxy-3,4-dihydro-2H-benzo[e][1,2]oxaborinine-8-carboxylic acid]	< 10	10 to 50	< 1	
